Data on 4 compounds can be found in PMC5289470, “The biodistribution of 5-[^18F]fluoropyrazinamide in Mycobacterium tuberculosis-infected mice determined by positron emission tomography” (PLoS ONE, 2017).

Structures are written as SMILES. In brackets after ≈: the same amount, converted by molar mass. Entries after “also recorded” stand apart in the source; their conditions may differ. Like-named read-outs stand apart in the source and are kept apart here.

One data set deals with M. tuberculosis H37Rv. The data set can be described thus: MIC by agar dilution method. The class given is cell-based. The settings on record: Mycobacterium tuberculosis, acidic agar pH 5.5 to 6, 30 days.
The format of data set [1] is in vitro ADME, mouse. The procedure:
Test compounds were weighed and dissolved in dimethyl sulfoxide (DMSO) to give 10 mM stock solutions. The stock solutions were diluted to 500 μM with a mixture of methanol and H2O (1:1), and the final concentrations of DMSO and methanol were equal to, or less than, 0.1%. Liver microsome incubations were conducted in duplicate in 96—well plates. Each well contained 40 μL of 0.1 M potassium phosphate buffer (pH 7.4), 2.5 mM MgCl2, 0.625 mg/mL mouse liver microsomes, and test compound (1.25 μM) or positive control. After a 5 min pre-incubation at 37°C, 10 μL of 5.0 mM NADPH in 0.1 M potassium phosphate buffer was added to initiate the enzymatic reaction. The final concentrations were 0.1M potassium phosphate (pH 7.4), 1.0 mM NADPH, 2.0 mM MgCl2, 0.5 mg/mL mouse liver microsomes, and test compound (1.0 μM) or positive control (1.0 μM). Reactions were terminated at various time points (0, 5, 10, 20, 40 min) by adding 100 μL of ice-cold acetonitrile containing internal standard. A parallel incubation was performed using 0.1 M potassium phosphate (pH 7.4) instead of NADPH as the negative control, and the reaction was terminated 40 min after incubation at 37°C. Compound quantitation was performed on a Shimadzu liquid chromatographic system coupled with an API4000 mass spectrometer equipped with TurboIonSpray (ESI) Interface (Applied Biosystems).

A further data set relates to M. tuberculosis (H37Rv). The experiment in a line: In vitro accumulation assay, M. tuberculosis. The class given is cell-based. The following applies: 120 min of incubation.
Data set [2] deals with Staphylococcus aureus (ATCC 29213). The experiment in a line: In vitro accumulation assay, S. aureus. The following applies: 120 min of incubation. The class given is cell-based.
The subject of data set [3] is Escherichia coli (ATCC 25922). The data set can be described thus: In vitro accumulation assay, E. coli. The class given is cell-based. The settings on record: 120 min of incubation.
For data set [4], the system named is Pseudomonas aeruginosa (ATCC 10145). The data set can be described thus: In vitro accumulation assay, P. aeruginosa. The class given is cell-based. The following applies: 120 min of incubation.
Data set [5] has as its system J774A.1 murine macrophage cells. The data set can be described thus: Uptake assay in macrophage cells. The following applies: 120 min of incubation. The class given is cell-based.
The conditions of data set [6]: mouse, 740 kBq/mL.
Data set [7] deals with heat-killed control cultures. The data set can be described thus: Accumulation assay in heat-killed bacteria (negative control). The settings on record: heat-killed 90°C for 30 min.
Data set [8] can be described thus: PET/CT imaging and ex vivo biodistribution in M. tuberculosis-infected and uninfected mice.
A further data set deals with M. tuberculosis. Details: method as in PMID 23287128. The settings on record: ref [31]; cited from earlier work.
Where [9] appears, read: M. tuberculosis H37Rv, read-out: MIC.

With `NC(=O)c1cnccn1` [PZA, pyrazinamide], in the data set with M. tuberculosis H37Rv (setting [9]), the MIC came out at 20 µg/mL (≈ 0.162 mM).
Regarding `NC(=O)c1cnc(F)cn1` [5-F-PZA, 5-Fluoropyrazinamide], the MIC in the data set on M. tuberculosis H37Rv (H37RV, read-out: concentration up to which bacterial growth was not inhibited (MIC)) was above 2000 µg/mL; in the data set on M. tuberculosis H37Rv (setting [9]), above 2000 µg/mL. Also, the “fraction of initial concentration metabolized” value in [1] (CD-1, mouse, microsomes, 40 min, 1 μM, pH 7.4) was “approximately 20%”. The “stability in the presence of liver microsomes” value in data set [1] (mouse) is reported as “not stable”.
With `NC(=O)c1cnc([18F])cn1` [5-[^18F]F-PZA, 5-[^18F]F-pyrazinamide], the “In vitro accumulation in M. tuberculosis” value with M. tuberculosis (H37Rv) is reported as 0.094%. For the same compound, the “In vitro accumulation in S. aureus” value in [2] was determined as 0.123±0.014. The “In vitro accumulation in E. coli” value in [3] is 0.055±0.005. Also, the “In vitro accumulation in P. aeruginosa” value in [4] turned out to be 0.043±0.026. Further, in data set [5], the “Accumulation in J774A.1 murine macrophage cells” value is listed as 0.057±0.019. Further, the “incubation time after which defluorination could be detected” value in data set [6] is 2 min. Besides, the “percent of total activity defluorinated” value in data set [6] (30 min) is recorded as ~ 25%. In addition, the percent defluorination in data set [6] (60 min) is ~ 40%. In addition, in data set [7], the “Uptake in heat-killed control cultures” value is “no uptake”. Also, the bone activity result in [8] (PET 10 min and 30 min post-injection, post-mortem analysis) was “significant activity in the bones”. In data set [8] (PET imaging), the “distribution to organs after intravenous administration” value is “rapidly distributed to various organs” and the elimination from organs entry was “rapidly eliminated from all major organs”. In addition, the “ex vivo activity in lung (and spleen), infected vs uninfected” value in data set [8] (direct γ counting after PET imaging) is “higher activity in uninfected lung tissue compared to infected lungs; also recorded: higher activity in uninfected lung and spleen tissues”. In addition, the “PET concentration (%ID/cc) in blood, liver, bone and lungs, infected vs uninfected mice” value in [8] (intravenous, throughout 60 min post-injection) is on record as “not significantly different; also recorded: No significant difference”.
Take `NC(=O)c1cnc(Cl)cn1` [5-Cl-PZA, 5-Chloropyrazinamide]: the “activity in M. tuberculosis-infected mice” value with M. tuberculosis is “lack of activity”.
